Measured values reported in patent US20040157867A1, “Pyrimidine phosphorylase as a target for imaging and therapy” (priority 2004, published 2004).
Where two headings read alike, the source gives them in different places.

How the values were obtained:
[1] = cited from earlier work
[2] = tested on: U937; assay: Growth inhibition of U937 tumor cells by BrUra; format: cell-based, human; details: 72 hr
Method: (§1) The five human-derived tumor cell lines shown below were incubated with BrUra at concentrations from 0.5 to 4.5 mM for 72 hours. (Cell lines are available at the ATCC, Manassas, Va.) Separate incubations were conducted in the presence or absence of 50 μM dUrd. Growth inhibition was determined as a percentage of control values for cells incubated without BrUra or dUrd. Consistent with the experiments described in Example 8, co-incubation with dUrd increased cytotoxicity of BrUra in all groups. As expected from their high level of TPase expression, U937 were the only cells with notable toxicity at 0.5 mM, and also the greatest toxicity at 1.5 and 4.5 mM. CEM, MOLT4, and K562 were substantially less affected by incubation with BrUra, consistent with a low intracellular activation rate because of low TPase expression.
(§2) % Growth Inhibition, Based Upon Control Doubling Time=24 Hr. BrUra Concentrations Ranged from 0.5 to 4.5 mM. Incubations were Conducted for 72 Hr in the Presence or Absence of 50 μM ddUrd.

[3] = biological target: T1, TPase (Homo sapiens, UniProt P19971); assay: TPase inhibition in tumor cells co-incubated with human liver cytosol ([3H]-dThd incorporation into DNA); format: cell-based; details: BrUra 500 μM, U-937 or MOLT-4 cells with human liver cytosol (S100), 5-35% without BrUra
T1 sequence (P19971 11-482): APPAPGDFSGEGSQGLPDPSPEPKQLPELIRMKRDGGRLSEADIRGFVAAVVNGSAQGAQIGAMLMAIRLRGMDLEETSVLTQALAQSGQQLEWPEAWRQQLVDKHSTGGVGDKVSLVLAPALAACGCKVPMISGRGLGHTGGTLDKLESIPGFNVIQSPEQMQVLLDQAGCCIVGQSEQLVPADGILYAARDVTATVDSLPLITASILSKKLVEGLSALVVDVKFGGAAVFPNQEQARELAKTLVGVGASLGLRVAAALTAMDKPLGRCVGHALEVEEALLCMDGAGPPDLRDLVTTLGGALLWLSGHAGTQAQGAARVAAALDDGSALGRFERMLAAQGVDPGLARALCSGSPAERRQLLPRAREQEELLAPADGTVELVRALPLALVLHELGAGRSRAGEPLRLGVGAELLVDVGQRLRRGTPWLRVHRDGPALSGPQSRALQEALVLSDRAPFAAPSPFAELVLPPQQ
Method: [^3H]-dThd (0.02 μM) or [^3H]-dUrd (0.1 μM) was incubated with either U-937 or MOLT-4 tumor cells, and incorporation of [[…] into DNA was measured after 3 hours. Cytosol (S100) was prepared from human liver by differential centrifugation. This cytosol, which contains TPase, was co-incubated with U-937 or MOLT4 tumor cells to simulate the degradation of pyrimidine nucleosides in the body. Incorporation of [^3H]-dThd into DNA was decreased to 5-35% of baseline levels. When BrUra (500 μM) was also added to the incubation mixture, TPase inhibition was observed as increased incorporation of [^3H]-dThd in DNA, back to 39-89% of baseline levels.

[4] = tested on: Raji; assay: Growth inhibition of Raji tumor cells by BrUra; format: cell-based, human; details: 72 hr
Method: as §1, §2

[5] = tested on: K562; assay: Growth inhibition of K562 tumor cells by BrUra; format: cell-based, human; details: 72 hr
Method: as §1, §2

[6] = biological target: T1, TPase; assay: TPase inhibition in intact human hepatocytes ([3H]-Ura formation from [3H]-dUrd); format: cell-based; set-up: Cryopreserved human hepatocytes were procured from In Vitro Technologies, Inc; host or cells: cryopreserved human hepatocytes; details: [3H]-dUrd 0.2 μM, one hour
Method: Cryopreserved human hepatocytes were procured from In Vitro Technologies, Inc. (Catonsville, Md.) and processed according to the supplier's instructions. TPase activity was monitored for one hour by measuring formation of [^3H]-Ura from [^3H]-dUrd, 0.2 μM. Co-incubation of tritiated dUrd with 100 μM BrUra inhibited TPase by 48%, and 500 μM of BrUra inhibited TPase by 85%.

[7] = tested on: Dunning rat prostatic tumors; assay: 5-X-Ura incorporation into tumor DNA in vivo; details: BrUra intravenously, tumors harvested 105 minutes after injection
Method: Dunning rat prostatic tumors were implanted (250,000 cells) subcutaneously in 3 rats. Two weeks post-implantation, the tumors had reached 7-20 g in size and the rats weighed about 250 g. At 2 weeks post-implantation, TPase was measured. BrUra was prepared in an aqueous solution, adjusted to pH 9 (the same formulation used clinically for its analog, FUra), and injected intravenously via a tail vein. The rats were sacrificed 105 minutes after the injection, and the tumors were harvested. DNA from the tumor was isolated, digested, and the nucleosides analyzed by HPLC (Klecker, 1994). BrdUrd was found in the DNA of the tumors, replacing 0.15% of the dThd bases.

[8] = tested on: CEM; assay: Growth inhibition of CEM tumor cells by BrUra; format: cell-based, human; details: 72 hr
Method: as §1, §2

[9] = tested on: MOLT4; assay: Growth inhibition of MOLT4 tumor cells by BrUra; format: cell-based, human; details: 72 hr
Method: as §1, §2

[10] = tested on: U-937 cells; assay: Enhancement of BrUra trapping into DNA by dR-1-P prodrugs; format: cell-based, human; details: 24 hours, 20 μM BrUra and 20 μM deoxyribonucleoside
Method: The effect of dR-1-P prodrugs was examined in U-937 cells. Cells were incubated for 24 hours with 20 μM BrUra and 20 μM of six different deoxyribonucleosides. The use of prodrugs for dR-1-P is described as a way of driving the reaction catalyzed by TPase in the direction of thymidine production. As illustrated in the bar chart, in FIG. 3, the maximum enhancement of BrUra trapping in DNA was 24-fold, for dUrd. An increase of 6-fold was found for dIno.

[11] = tested on: U-937 cells implanted subcutaneously in nude mice; assay: Incorporation of [3H]-BrUra into tumor DNA in vivo, modulation with eniluracil; details: eniluracil 2 mg/kg i.p. thirty minutes prior to i.v. [3H]-BrUra, 24 hours
Method: U-937 cells (ATCC; Manassas, Va.) were implanted subcutaneously in nude mice. When tumors grew to about 0.5 gram, [^3H]-BrUra was injected i.v. One set of mice received eniluracil, 2 mg/kg, injected i.p. thirty minutes prior to i.v. [3H]-BrUra, and the other set received no treatment prior to [^3H]-BrUra i.v. Both sets of mice were killed 24 hours later, and tumors and blood removed. DNA from tumors was extracted and analyzed using our established techniques (Klecker et al., 1994). [^3H]-BrdUrd was found in DNA in tumors by radiochromatography, indicating conversion of [^3H]-BrUra in vivo, similar to our results for cell culture.

O=c1[nH]cc(F)c(=O)[nH]1 [5-FUra, 5-fluorouracil]
increase in 5-FUra exposure ([1]; presence versus absence of eniluracil): 50- to 100 fold
Plasma clearance of 5-FUra ([1]; with eniluracil): 0.1 L/min
recovered unchanged in the urine ([1]; with eniluracil): 77%
tolerated dose upon continuous dosing ([1]; with eniluracil): 2 mg/day per square meter of body surface
Plasma clearance of 5-FUra ([1]; without eniluracil): 5.0 L/min
recovered unchanged in the urine ([1]; without eniluracil): less than 10%

O=c1[nH]cc(Br)c(=O)[nH]1 [BrUra, bromouracil]
% Growth Inhibition ([2]; U937, BrUra 0.5 mM, with 50 μM dUrd): 28%
% Growth Inhibition ([2]; U937, BrUra 0.5 mM, without dUrd): 16%
% Growth Inhibition ([2]; U937, BrUra 1.5 mM, with 50 μM dUrd): 77%
% Growth Inhibition ([2]; U937, BrUra 1.5 mM, without dUrd): 47%
% Growth Inhibition ([2]; U937, BrUra 4.5 mM, with 50 μM dUrd): 100%
% Growth Inhibition ([2]; U937, BrUra 4.5 mM, without dUrd): 100%
incorporation of [3H]-dThd in DNA, of baseline levels [3]: 39-89%
% Growth Inhibition ([4]; BrUra 0.5 mM, with 50 μM dUrd): 9%
% Growth Inhibition ([4]; BrUra 0.5 mM, without dUrd): 2%
% Growth Inhibition ([4]; BrUra 1.5 mM, with 50 μM dUrd): 24%
% Growth Inhibition ([4]; BrUra 1.5 mM, without dUrd): 27%
% Growth Inhibition ([4]; BrUra 4.5 mM, with 50 μM dUrd): 67%
% Growth Inhibition ([4]; BrUra 4.5 mM, without dUrd): 65%
% Growth Inhibition ([5]; K562, BrUra 0.5 mM, with 50 μM dUrd): −6%
% Growth Inhibition ([5]; K562, BrUra 0.5 mM, without dUrd): −7%
% Growth Inhibition ([5]; K562, BrUra 1.5 mM, with 50 μM dUrd): 28%
% Growth Inhibition ([5]; K562, BrUra 1.5 mM, without dUrd): 13%
% Growth Inhibition ([5]; K562, BrUra 4.5 mM, with 50 μM dUrd): 77%
% Growth Inhibition ([5]; K562, BrUra 4.5 mM, without dUrd): 57%
TPase inhibition ([6]; 100 μM BrUra): 48%
TPase inhibition ([6]; 500 μM BrUra): 85%
BrdUrd found in DNA of the tumors, replacing dThd bases [7]: 0.15%
% Growth Inhibition ([8]; BrUra 0.5 mM, with 50 μM dUrd): 13%
% Growth Inhibition ([8]; BrUra 0.5 mM, without dUrd): 6%
% Growth Inhibition ([8]; BrUra 1.5 mM, with 50 μM dUrd): 65%
% Growth Inhibition ([8]; BrUra 1.5 mM, without dUrd): 23%
% Growth Inhibition ([8]; BrUra 4.5 mM, with 50 μM dUrd): 95%
% Growth Inhibition ([8]; BrUra 4.5 mM, without dUrd): 89%
% Growth Inhibition ([9]; MOLT4, BrUra 0.5 mM, with 50 μM dUrd): 8%
% Growth Inhibition ([9]; MOLT4, BrUra 0.5 mM, without dUrd): 6%
% Growth Inhibition ([9]; MOLT4, BrUra 1.5 mM, with 50 μM dUrd): 25%
% Growth Inhibition ([9]; MOLT4, BrUra 1.5 mM, without dUrd): 26%
% Growth Inhibition ([9]; MOLT4, BrUra 4.5 mM, with 50 μM dUrd): 85%
% Growth Inhibition ([9]; MOLT4, BrUra 4.5 mM, without dUrd): 66%

OC[C@H]1O[C@@H](n2cnc3c(O)ncnc32)C[C@@H]1O [dIno, deoxyinosine]
enhancement of BrUra trapping in DNA [10]: 6 fold

O=c1ccn([C@H]2C[C@H](O)[C@@H](CO)O2)c(=O)[nH]1 [dUrd]
enhancement of BrUra trapping in DNA [10]: 24 fold

C#Cc1c[nH]c(=O)[nH]c1=O [eniluracil]
increase of incorporation of radioactivity into DNA from [3H]-BrUra [11]: five-fold
